Results taken from patent US9757375B2, “Compounds that inhibit human DNA ligases and methods of treating cancer” (University of Maryland, Baltimore, priority 2007, dated 2017).
Like-named read-outs stand apart in the source and are kept apart here. Marks after values point to notes of the source that are not given here.

Legend:
hLigI = target: T1, hLigI (Homo sapiens, UniProt P18858); assay: High-throughput fluorescence-based DNA joining (ligation) assay; assay type: biochemical
T1 construct: made in house
Protocol: (§1) Candidate ligase inhibitors identified by CADD were assayed for their ability to inhibit hLigI and T4 DNA ligase using a high-throughput, fluorescence energy transfer-based DNA joining assay (22). Duplicate reactions (30 μL) containing 10 pmol of nicked DNA substrate and either 0.25 pmol of hLigI or 10 units of T4 DNA ligase were incubated in the presence or absence of 100 μmol/L of the putative inhibitor. DNA binding by the candidate DNA ligase inhibitors was measured by displacement of ethidium bromide from DNA as previously described (30).
(§2) The method for screening compounds comprises testing the compound for the ability to inhibit human DNA ligases I, III and IV with a high throughput fluorescence-based ligation assay. In this assay, phosphodiester bond formation covalently links together two oligonucleotides, one of which is a fluorescent donor AF488 that is 11 nucleotides from the 3′ terminus and the other contains a fluorescence acceptor and quencher, BHQ1 that is 15 nucleotides from the 5′ terminus. When these oligonucleotides are present in separate duplexes and in the same nicked or intact duplex, there is no significant quenching of fluorescence because the donor and acceptor are too far apart. As single-strands neither the AF488 oligonucleotide nor the BHQ1 oligonucleotides have significant secondary structure. However, when these oligonucleotides are ligated together, the resultant single strand forms a stable hairpin structure, in which the AF488 and BHQ1 groups are very close together, resulting in efficient intra-molecular quenching of fluorescence. Thus, in the DNA joining assay, the DNA substrate is denatured after incubation with the DNA ligase and then renatured in the presence of a 20-fold excess of an oligonucleotide that is identical to the ligated strand containing the fluorescent door and acceptor except that it lacks these modifications. Using this assay, DNA joining, which results in reduced fluorescence at 518 nm, can be measured rapidly, quantitatively and with high-throughput using a fluorescence plate reader.
(§3) Applicants developed a novel high throughput fluorescence-based ligation assay by modifying the sequence of the oligos to optimize hairpin formation by the single strand ligated product of the high throughput fluorescence-based ligation assay of Chen et al (22). […] Compound stock solutions, which were 10 mM in 0.5% DMSO, were diluted in 0.5% DMSO. Human DNA ligases I and III were assayed with a nicked DNA substrate whereas as the substrate for human DNA ligase IV was two oligonucleotide duplexes with short complementary single strand ends.

human DNA ligase III = target: T2, human DNA ligase III (Homo sapiens, UniProt P49916); assay: as above; assay type: biochemical
T2 sequence (P49916 1-862 isoform P49916-4): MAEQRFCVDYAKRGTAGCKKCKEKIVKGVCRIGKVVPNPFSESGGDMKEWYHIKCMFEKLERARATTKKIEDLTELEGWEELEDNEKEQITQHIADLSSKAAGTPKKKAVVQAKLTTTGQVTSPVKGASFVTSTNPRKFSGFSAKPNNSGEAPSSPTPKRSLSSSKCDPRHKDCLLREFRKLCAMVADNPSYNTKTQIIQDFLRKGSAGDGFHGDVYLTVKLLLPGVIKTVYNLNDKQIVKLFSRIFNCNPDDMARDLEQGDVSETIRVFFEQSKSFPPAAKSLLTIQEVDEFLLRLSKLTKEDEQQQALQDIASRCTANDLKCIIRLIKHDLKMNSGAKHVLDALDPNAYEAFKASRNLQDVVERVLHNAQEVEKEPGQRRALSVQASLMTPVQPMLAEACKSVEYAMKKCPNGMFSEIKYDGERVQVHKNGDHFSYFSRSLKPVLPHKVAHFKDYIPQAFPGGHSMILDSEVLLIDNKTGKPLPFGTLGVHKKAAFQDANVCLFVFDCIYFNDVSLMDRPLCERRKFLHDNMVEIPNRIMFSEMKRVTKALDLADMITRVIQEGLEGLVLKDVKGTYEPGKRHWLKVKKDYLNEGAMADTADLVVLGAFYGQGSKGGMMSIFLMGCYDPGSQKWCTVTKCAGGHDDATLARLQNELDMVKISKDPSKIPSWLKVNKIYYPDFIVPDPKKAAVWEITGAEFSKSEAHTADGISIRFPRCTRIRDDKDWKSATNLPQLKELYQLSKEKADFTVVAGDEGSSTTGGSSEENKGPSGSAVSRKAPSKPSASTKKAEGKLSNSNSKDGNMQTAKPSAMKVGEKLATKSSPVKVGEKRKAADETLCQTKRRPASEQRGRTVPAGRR
From the text: as §2, §3

human DNA ligase IV = human DNA ligase IV (Homo sapiens, UniProt P49917); assay: as above; assay type: biochemical
From the text: as §2, §3

HCT116 cells [1] = assay: Screen for potentiation of DNA damaging agents (MMS, camptothecin, cis-platinum, 3 aminobenzamide, ionizing radiation); assay type: cell-based, human; conditions: 1 = no sensitization; for MMS: Ratios of IC50 HCT116: compound alone vs combination with MMS (100 μM)
From the text: The 192 human DNA ligase inhibitors were screened in parallel for effects on proliferation and the ability to potentiate the effects of several DNA damaging agents using two cell human lines, a colon cancer line HCT116 and a normal breast epithelial cell line MCF10A using a Biomek FX Laboratory Automation Workstation as described (23). The DNA damaging agents used, methyl methanesulfonate (MMS), camptothecin, cis-platinum, 3 aminobenzamide and ionizing radiation, are representatives of classes of agents used to treat cancer. Briefly, HCT116 and MCF10A cells were plated in 96 well plates such that the cultures were about 80% confluent after 5 days incubation. Compounds were added to the cultures at either 15 μM or 50 μM 1 day after plating. After incubation for 3 days, cell lysed in a solution containing 1.2% Igepal CA-630 and SYBR green that stains DNA (1:1000, Molecular Probes, Eugene, Oreg.). Subsequently, fluorescence was measured per well. The studies with DNA damaging agents were performed as follows. […] For ionizing radiation, cells were pre-incubated with the compounds at 50 μM for 1 hour prior to exposure to 2 gray of ionizing radiation. Cultures were incubated for 3 days and then treated as above.

MCF10A cells [2] = assay: as above; assay type: cell-based, human; conditions: compound alone vs combination with 3-AB (2 mM); 1 = no sensitization
From the text: The 192 human DNA ligase inhibitors were screened in parallel for effects on proliferation and the ability to potentiate the effects of several DNA damaging agents using two cell human lines, a colon cancer line HCT116 and a normal breast epithelial cell line MCF10A using a Biomek FX Laboratory Automation Workstation as described (23). The DNA damaging agents used, methyl methanesulfonate (MMS), camptothecin, cis-platinum, 3 aminobenzamide and ionizing radiation, are representatives of classes of agents used to treat cancer. Briefly, HCT116 and MCF10A cells were plated in 96 well plates such that the cultures were about 80% confluent after 5 days incubation. Compounds were added to the cultures at either 15 μM or 50 μM 1 day after plating. After incubation for 3 days, cell lysed in a solution containing 1.2% Igepal CA-630 and SYBR green that stains DNA (1:1000, Molecular Probes, Eugene, Oreg.). Subsequently, fluorescence was measured per well. The studies with DNA damaging agents were performed as follows. […] Cultures were incubated for 3 days and then treated as above.

HCT116 cells [3] = assay: MTT cell growth assay; assay type: cell-based, human; conditions: Homo sapiens, HCT-116
Protocol: (§4) The activity of hits from the initial screen was further validated using the MTT assay. Briefly, MCF10A and HCT116 cells were seeded in 96 well plates at 300 and 1200 cells per well, respectively, and allowed to adhere overnight. The following day, serial dilutions of compounds in media were added to the cells in a final volume 200 μl. After incubation for 5 days, MTT reagent (3-(4,5-dimthylthiazol-2-yl)-2,5-diphenyltatrazolium) was added and incubation was continued for 4 h. Formazan crystals generated by reduction of the MTT reagent in mitochondria were solubilized with isopropanol prior to the measurement of absorbance at 560 nm wavelength in a plate reader.
After incubation for 5 days, cell growth was measured by the MTT assay (16).

MCF10A cells [4] = assay: MTT cell growth assay; assay type: cell-based, human; conditions: Homo sapiens, MCF-10A; sections 'high concentrations (~50 μM)' and 'active in vitro that decreased cell growth'; same figures given in μM elsewhere in Table 6; read-out: IC50 MCF10A (head without unit)
Protocol: as §4
To extend the results of the […] cell culture screening assay, a subset of compounds were tested in larger cultures. Different concentrations of Compounds 67 and 151 were added to asynchronous subconfluent populations of HCT116 and MCF10A cells. Asynchronous subconfluent populations of HCT116 and MCF10A cells were pre-treated with different concentrations of compound 64 prior to the addition of 3 aminobenzamide (2 mM) MMS (100 μM) or cis-platinum (1 μM). After incubation for 5 days, cell growth was measured by the MTT assay (16).

T4 DNA ligase = target: T3, T4 DNA ligase (Enterobacteria phage T4, UniProt P00970); assay: High-throughput fluorescence-based DNA joining assay, non-specific inhibitor control; assay type: biochemical, bacteriophage T4; conditions: 100 μM; read-out: In vitro % inhib T4 100
T3 construct: purchased NEB
T3 sequence (P00970 1-487): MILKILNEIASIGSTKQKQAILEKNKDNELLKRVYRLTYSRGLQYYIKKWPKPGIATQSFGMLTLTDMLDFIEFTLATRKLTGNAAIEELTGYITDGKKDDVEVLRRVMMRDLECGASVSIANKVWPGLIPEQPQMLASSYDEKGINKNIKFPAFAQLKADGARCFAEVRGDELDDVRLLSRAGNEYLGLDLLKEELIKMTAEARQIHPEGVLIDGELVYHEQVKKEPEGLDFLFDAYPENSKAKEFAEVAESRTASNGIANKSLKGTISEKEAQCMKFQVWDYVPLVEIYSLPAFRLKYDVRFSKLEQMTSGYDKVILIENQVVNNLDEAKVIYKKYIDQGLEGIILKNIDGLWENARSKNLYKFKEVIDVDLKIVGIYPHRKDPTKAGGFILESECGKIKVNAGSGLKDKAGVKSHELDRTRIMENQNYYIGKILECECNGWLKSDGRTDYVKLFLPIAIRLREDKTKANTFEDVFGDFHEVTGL
Protocol: as §1
In addition, to identify compounds that may be non-specific inhibitors of DNA joining, the 192 compounds were also assayed for their ability to inhibit bacteriophage T4 DNA ligase, an enzyme that utilizes the same reaction mechanism as hLigI, has similar adenylation and OB-fold domains but lacks a DBD domain. (6) Although this is also an ATP-dependent DNA ligase, it lacks the domain containing the binding pocket targeted by the in silico screen. Compounds that inhibited T4 DNA ligase were eliminated as non-specific inhibitors that most likely bind to the DNA.

[5] = test system: MCF7, HCT116, HeLa, and MCF10A cells; assay: Survival assay on cell panel (FIG. 9); assay type: cell-based, human; conditions: Homo sapiens; cell line not stated
From the text: FIG. 9. […] A, effect of L67 (left) and L189 (right) on the survival of MCF7 (Δ), HCT116 (□), HeLa (⋄), and MCF10A (upsidedown triangle) cells. B, normal breast epithelial MCF10A cells (open symbols) and breast cancer MCF7 cells (filled symbols) in the absence (circles) or presence of 3 μmol/L of L67 (squares) were exposed to increasing concentrations of MMS (left). Normal breast epithelial MCF10A cells (open symbols) and colon cancer HCT116 cells (filled symbols) in the absence (circles) or presence of 20 μmol/L of L189 (squares) were exposed to increasing doses of ionizing radiation (right). C, hLigI (I), hLigIIIα (III), and hLigIV (IV) were detected in extracts (400 μg) of the indicated cell lines by immunoblotting. To control for extract loading β-actin was also detected by immunoblotting.
For survival assays, cells were plated in 6 well plates and grown either in the absence or presence of ligase inhibitors. Where indicated, either MMS (0-50 μM) was added to the medium or the cells were irradiated in a Cs-137 irradiator (0-2.5 Gy). After two weeks, colonies were stained with crystal violet (Sigma) and then counted.

[6] = read-out: % of inhibition @ 100 μM (Helen's data) hLigIII
[7] = cell growth, compound alone, read-out: IC50 (μM) HCT116

T1 sequence (P18858 whole entry): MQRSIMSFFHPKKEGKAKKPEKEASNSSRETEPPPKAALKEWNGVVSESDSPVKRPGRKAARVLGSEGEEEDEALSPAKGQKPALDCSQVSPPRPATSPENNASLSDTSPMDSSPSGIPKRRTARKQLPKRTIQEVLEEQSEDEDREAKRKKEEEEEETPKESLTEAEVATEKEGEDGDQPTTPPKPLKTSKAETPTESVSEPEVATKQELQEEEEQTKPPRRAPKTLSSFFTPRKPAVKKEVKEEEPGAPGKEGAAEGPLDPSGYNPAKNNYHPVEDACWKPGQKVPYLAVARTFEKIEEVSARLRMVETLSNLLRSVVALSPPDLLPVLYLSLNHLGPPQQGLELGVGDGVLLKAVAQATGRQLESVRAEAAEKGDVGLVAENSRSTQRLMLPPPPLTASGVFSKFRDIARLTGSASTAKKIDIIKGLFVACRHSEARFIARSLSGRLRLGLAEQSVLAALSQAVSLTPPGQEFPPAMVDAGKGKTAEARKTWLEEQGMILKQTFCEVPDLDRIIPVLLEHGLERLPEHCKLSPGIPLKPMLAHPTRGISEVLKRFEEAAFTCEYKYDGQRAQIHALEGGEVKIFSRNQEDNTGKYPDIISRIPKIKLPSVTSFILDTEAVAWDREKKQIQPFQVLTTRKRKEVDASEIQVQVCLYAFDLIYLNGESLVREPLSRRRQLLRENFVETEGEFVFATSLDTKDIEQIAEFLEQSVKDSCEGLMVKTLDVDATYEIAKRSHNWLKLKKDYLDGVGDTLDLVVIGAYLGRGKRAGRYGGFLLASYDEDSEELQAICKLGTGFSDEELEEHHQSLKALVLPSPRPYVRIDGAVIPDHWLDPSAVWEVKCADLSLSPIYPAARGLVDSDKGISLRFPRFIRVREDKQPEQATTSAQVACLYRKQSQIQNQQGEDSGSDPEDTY
Chain of human DNA ligase IV (P49917 whole entry): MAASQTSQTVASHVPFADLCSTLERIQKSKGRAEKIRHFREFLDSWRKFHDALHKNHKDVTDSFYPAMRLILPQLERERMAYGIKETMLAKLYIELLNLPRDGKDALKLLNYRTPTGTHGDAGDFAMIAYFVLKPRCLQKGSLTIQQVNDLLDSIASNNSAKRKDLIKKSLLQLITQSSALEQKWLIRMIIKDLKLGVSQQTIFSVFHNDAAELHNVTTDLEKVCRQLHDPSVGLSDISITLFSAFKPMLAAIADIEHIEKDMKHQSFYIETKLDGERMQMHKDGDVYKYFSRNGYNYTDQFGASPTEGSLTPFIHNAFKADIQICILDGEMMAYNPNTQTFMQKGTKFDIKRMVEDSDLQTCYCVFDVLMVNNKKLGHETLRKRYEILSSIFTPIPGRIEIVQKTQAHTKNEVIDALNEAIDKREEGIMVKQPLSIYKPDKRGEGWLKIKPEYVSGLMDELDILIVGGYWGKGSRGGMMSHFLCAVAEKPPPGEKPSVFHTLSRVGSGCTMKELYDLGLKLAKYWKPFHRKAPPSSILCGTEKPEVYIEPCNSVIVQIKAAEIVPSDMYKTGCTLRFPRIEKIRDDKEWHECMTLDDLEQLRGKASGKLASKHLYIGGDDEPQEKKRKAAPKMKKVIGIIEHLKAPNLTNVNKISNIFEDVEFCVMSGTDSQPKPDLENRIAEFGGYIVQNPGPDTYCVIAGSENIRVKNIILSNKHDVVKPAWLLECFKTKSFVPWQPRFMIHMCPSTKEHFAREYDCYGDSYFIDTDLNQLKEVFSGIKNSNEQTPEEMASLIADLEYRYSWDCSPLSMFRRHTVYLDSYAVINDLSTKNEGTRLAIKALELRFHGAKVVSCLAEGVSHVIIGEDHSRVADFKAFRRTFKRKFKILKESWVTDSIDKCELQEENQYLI
Chain of human DNA ligase IV (Q13426 whole entry partner): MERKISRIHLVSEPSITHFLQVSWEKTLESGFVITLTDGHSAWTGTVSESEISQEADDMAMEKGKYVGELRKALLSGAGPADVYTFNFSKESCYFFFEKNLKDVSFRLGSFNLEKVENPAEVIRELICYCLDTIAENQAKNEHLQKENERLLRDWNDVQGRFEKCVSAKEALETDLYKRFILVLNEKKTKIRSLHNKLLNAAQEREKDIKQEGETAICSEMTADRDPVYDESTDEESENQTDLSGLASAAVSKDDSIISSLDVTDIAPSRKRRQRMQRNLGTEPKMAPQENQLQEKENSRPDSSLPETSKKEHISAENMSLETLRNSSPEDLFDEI

Compound	inhibition at 100 µM (hLigI; read-out: % of inhibition @ 100 μM (Helen's data) hLigI) [%]	inhibition at 100 µM (human DNA ligase III; [6]) [%]	inhibition at 100 µM (human DNA ligase IV; read-out: % of inhibition @ 100 μM (Helen's data) hLigIV) [%]	IC50 ratios of non- and 3-AB treated cells HCT116 (HCT116 cells [1]; compound alone vs combination with 3-AB (2 mM))	MMS: Ratios of IC50 HCT116 (HCT116 cells [1])	IC50 ratios of non- and 3-AB treated cells MCF10A (MCF10A cells [2])	IC50 (HCT116 cells [3]; [7]) [µM]	IC50 (MCF10A cells [4]) [µM]	% activity Inhibition hLigI 100 uM (hLigI; 100 uM)	inhibition at 100 µM (hLigI; 100 μM, read-out: In vitro % inhib hLigI 100) [%]	inhibition at 100 µM (human DNA ligase III; 100 μM, read-out: In vitro % inhib hLigIII 100) [%]	inhibition at 100 µM (human DNA ligase III; 100 uM, Ø not defined (0 in Table 5A), read-out: % activity Inhibition hLigIII 100 uM) [%]	inhibition of human DNA ligase III, in words (human DNA ligase III; in vitro screen)	inhibition at 100 µM (human DNA ligase IV; 100 μM, read-out: In vitro % inhib hLigIV 100) [%]	% activity Inhibition hLigIV 100 uM (human DNA ligase IV; 100 uM, Ø not defined (0 in Table 5A))	inhibition at 100 µM (T4 DNA ligase) [%]	EC50 [5] [µM]	inhibition at 100 µM (hLigI; 100 μM, read-out: % of inhibition @ 100 μM (Helen's data) hLigI) [%]	inhibition at 100 µM (human DNA ligase IV; 100 μM, read-out: % of inhibition @ 100 μM (Helen's data) hLigIV) [%]	IC50 (HCT116 cells [3]; sections 'high concentrations (~50 μM)' and 'active in vitro that decreased cell growth', same figures given in μM elsewhere in Table 6, read-out: IC50 HCT116 (head without unit)) [µM]
O=C1NC(=S)NC(=O)C1=NNc1cccc(C(=O)O)c1 [Compound 198]	< 20	< 20	< 20	1	2**	2**	> 50	> 50	–	–	–	–	–	–	–	–	–	–	–	–
N#Cc1cn(CCCCCCCc2[nH]c(=O)[nH]c(=O)c2C#N)c(=O)[nH]c1=O [Compound 209]	–	–	–	–	–	–	–	–	Ø	0	71 ± 3	70.5 ± 2.6	specific for DNA ligase III	0	Ø	0	> 100	–	–	–
O=C(COC(=O)c1ccc2ccccc2c1O)c1cccs1 [Compound 214]	–	42	–	–	ID (2)	–	10 to 50	> 50	–	–	–	–	–	–	–	–	–	< 20	40	10 to 50
